# Measured values from patent publication US11045562B2, “Radiolabelled mGluR2/3 PET ligands” (Janssen Pharmaceutica NV, priority 2015, dated 2021).
# Tests used:
# mGluR2/3 [1] = experiment: microPET imaging in rhesus monkey, baseline and compound A pretreatment; format: in vivo, rhesus monkey (Macaca mulatta); conditions: for BPnd: baseline, SRTM, pons reference
# Excerpt: Dynamic 120-min μPET scans with [^18F]-1 were acquired with a Focus 220 μPET scanner on a rhesus monkey (8 y-old female Macaca mulatta, 5.8 kg), that was sedated with ketamine (Ketalar®) and xylazine (Rompun®) via intramuscular (i.m.) injection. During scanning the monkey received repeatedly an additional dose of ketamine/xylazine via i.v. injection. O2 saturation in blood, breathing frequency and heartbeat frequency were monitored during the entire experiment. The head of the animal was placed central in the field of view of the μPET scanner. Scans were acquired in list mode and Fourier rebinned in 27 time frames (4×15 s, 4×60 s, 5×180 s, 8×300 s, 6×600 s). Data were reconstructed using a 3D maximum a posteriori (3D-MAP) iterative reconstruction. TACs of the whole brain were generated using VOIs with PMOD software. Radioactivity concentration in the brain is expressed as SUV as a function of time after tracer injection. In addition, non-displaceable binding potential (BPnd) was determined, using kinetic modeling based on the simplified reference tissue model (SRTM) with the pons as reference region (0-60 min). Scans were started immediately after i.v. injection of 185 MBq of [^18F]-1 via the vena saphena of the right leg. For the pre-treatment study, the cold authentic reference compound A was dissolved in a vehicle containing 20% (2-hydroxypropyl)-β-cyclodextrin and 2 equivalents HCl, filtered through a 0.22-μm membrane filter (Millex-GV, Millipore) prior to injection. Pre-treatment was done by i.v. injection of 2.5 mg/kg of cold authentic reference compound A, 30 min prior to injection of 185 MBq of [^18F]-1. μPET images were compared to a baseline scan, acquired in the non-treated monkey. Blood samples were collected during both baseline and pre-treatment scans at 10, 30 and 60 min p.i. via a catheter in the vena saphena of the left leg and plasma was analysed for radio metabolites according to the same procedure as for rats.
# [2] = Ex-vivo biodistribution in Sprague-Dawley rats; conditions: for Uptake, Mean 2 min: 2 min after i.v. injection; for Uptake, Mean 2 min / Uptake, Mean 10 min / Uptake, Mean 30 min / Uptake, Mean 60 min: n=3; for Uptake, Mean 10 min: 10 min after i.v. injection; for Uptake, Mean 30 min: 30 min after i.v. injection; for Uptake, Mean 60 min: 60 min after i.v. injection
# Method: (§1) Sprague-Dawley rats obtained from Harlan (the Netherlands), were housed in groups of four to six per cage until treatment. They were kept at a constant temperature of 21° C. and at a 12-h light/dark cycle, in which lights were switched on at 8:00 a.m. Animals had unrestricted access to food (Teklad Global 16% Protein Rodent Diet, Harlan, Madison, Wis., USA) and water. All animal experiments were performed in compliance with Belgium laws on animal experimentation and after approval by the local animal ethics committee.
# The biodistribution of [^18F]-1 was determined at 2, 10, 30 and 60 min, after injection in Sprague Dawley rats (n=3 per time point. Rats were injected intravenously with 0.7-1.1 MBq via a tail vein and euthanized at the time points indicated above, under isoflurane anesthesia. All tissues were dissected, weighed and counted for radioactivity in a gamma counter.
# mGluR2/3 [3] = experiment: microPET scanning in SD rats, baseline and compound A pretreatment; format: in vivo
# Method: Data were acquired in a 128×128×95 matrix with a pixel width of 0.475 mm and a slice thickness of 0.796 mm. During PET imaging, rats were kept under gas anesthesia (2.5% isoflurane in oxygen at a flow rate of 1 l/min), and their body temperature was maintained between 36.5 and 37° C. using a heating pad. PET data were analyzed using Pmod software version 3.2 (Pmod, Zurich Switzerland).
# as §1
# The peak uptake in frontal cortex during the baseline scan was observed around 15 min after tracer injection.
structure (smiles),measurement,setting,value
C[C@H]1CN(c2ccc(C(F)(F)F)c(C[18F])c2)C(=O)c2c(NC(=O)c3cccnc3N)cnn21 [compound 1],BPnd,mGluR2/3 [1]; frontal and prefrontal cortices,high
same,bone uptake,"mGluR2/3 [1]; microPET scans, rhesus monkey",No bone uptake
same,BPnd,mGluR2/3 [1]; thalamus,low
same,brain uptake SUV,"mGluR2/3 [1]; whole brain, baseline scan",~3 SUV
same,time to peak uptake,"mGluR2/3 [1]; whole brain, baseline scan",3.5 min
same,time of highest uptake,[2]; all brain areas except for the pons,around 10 min
same,"Uptake, Mean 2 min",[2]; blood,0.72 SUV
same,"Uptake, Mean 10 min",[2]; blood,0.50 SUV
same,"Uptake, Mean 30 min",[2]; blood,0.39 SUV
same,"Uptake, Mean 60 min",[2]; blood,0.28 SUV
same,"Uptake, Mean 2 min",[2]; bone,0.61 SUV
same,"Uptake, Mean 10 min",[2]; bone,0.52 SUV
same,"Uptake, Mean 30 min",[2]; bone,0.73 SUV
same,"Uptake, Mean 60 min",[2]; bone,0.67 SUV
same,"Uptake, Mean 2 min",[2]; cerebellum,3.42 SUV
same,"Uptake, Mean 10 min",[2]; cerebellum,3.33 SUV
same,"Uptake, Mean 30 min",[2]; cerebellum,1.90 SUV
same,"Uptake, Mean 60 min",[2]; cerebellum,0.72 SUV
same,"Uptake, Mean 2 min",[2]; cerebrum + cerebellum,3.19 SUV
same,"Uptake, Mean 10 min",[2]; cerebrum + cerebellum,3.45 SUV
same,"Uptake, Mean 30 min",[2]; cerebrum + cerebellum,2.28 SUV
same,"Uptake, Mean 60 min",[2]; cerebrum + cerebellum,0.85 SUV
same,"Uptake, Mean 2 min",[2]; cortex,5.42 SUV
same,"Uptake, Mean 10 min",[2]; cortex,5.98 SUV
same,"Uptake, Mean 30 min",[2]; cortex,3.87 SUV
same,"Uptake, Mean 60 min",[2]; cortex,1.36 SUV
same,brain uptake,"[2]; ex-vivo biodistribution, SD rats",high
same,bone uptake over time,"[2]; ex-vivo biodistribution, hinting for some defluorination",went slightly up over time
same,"uptake in liver, kidneys, pancreas and heart",[2]; followed by a fast washout,high initial uptake
same,"Uptake, Mean 2 min",[2]; heart,4.73 SUV
same,"Uptake, Mean 10 min",[2]; heart,2.16 SUV
same,"Uptake, Mean 30 min",[2]; heart,1.49 SUV
same,"Uptake, Mean 60 min",[2]; heart,1.14 SUV
same,"Uptake, Mean 2 min",[2]; hippocampus,2.49 SUV
same,"Uptake, Mean 10 min",[2]; hippocampus,2.83 SUV
same,"Uptake, Mean 30 min",[2]; hippocampus,1.94 SUV
same,"Uptake, Mean 60 min",[2]; hippocampus,0.80 SUV
same,"Uptake, Mean 2 min",[2]; kidneys,6.59 SUV
same,"Uptake, Mean 10 min",[2]; kidneys,2.76 SUV
same,"Uptake, Mean 30 min",[2]; kidneys,2.24 SUV
same,"Uptake, Mean 60 min",[2]; kidneys,1.87 SUV
same,"Uptake, Mean 2 min",[2]; liver,8.81 SUV
same,"Uptake, Mean 10 min",[2]; liver,5.70 SUV
same,"Uptake, Mean 30 min",[2]; liver,3.90 SUV
same,"Uptake, Mean 60 min",[2]; liver,2.42 SUV
same,"Uptake, Mean 2 min",[2]; lungs,4.70 SUV
same,"Uptake, Mean 10 min",[2]; lungs,2.27 SUV
same,"Uptake, Mean 30 min",[2]; lungs,2.01 SUV
same,"Uptake, Mean 60 min",[2]; lungs,1.77 SUV
same,"Uptake, Mean 2 min",[2]; muscle,0.57 SUV
same,"Uptake, Mean 10 min",[2]; muscle,1.07 SUV
same,"Uptake, Mean 30 min",[2]; muscle,0.87 SUV
same,"Uptake, Mean 60 min",[2]; muscle,0.65 SUV
same,"Uptake, Mean 2 min",[2]; pancreas,6.47 SUV
same,"Uptake, Mean 10 min",[2]; pancreas,3.07 SUV
same,"Uptake, Mean 30 min",[2]; pancreas,2.84 SUV
same,"Uptake, Mean 60 min",[2]; pancreas,2.75 SUV
same,time of peak uptake,[2]; pons,2 min
same,"Uptake, Mean 2 min",[2]; pons,2.65 SUV
same,"Uptake, Mean 10 min",[2]; pons,2.13 SUV
same,"Uptake, Mean 30 min",[2]; pons,1.29 SUV
same,"Uptake, Mean 60 min",[2]; pons,0.56 SUV
same,"Uptake, Mean 2 min",[2]; rest of cerebrum,3.24 SUV
same,"Uptake, Mean 10 min",[2]; rest of cerebrum,3.74 SUV
same,"Uptake, Mean 30 min",[2]; rest of cerebrum,2.45 SUV
same,"Uptake, Mean 60 min",[2]; rest of cerebrum,0.91 SUV
same,"Uptake, Mean 2 min",[2]; spleen,3.71 SUV
same,"Uptake, Mean 10 min",[2]; spleen,1.64 SUV
same,"Uptake, Mean 30 min",[2]; spleen,1.13 SUV
same,"Uptake, Mean 60 min",[2]; spleen,0.87 SUV
same,"Uptake, Mean 2 min",[2]; striatum,3.21 SUV
same,"Uptake, Mean 10 min",[2]; striatum,3.56 SUV
same,"Uptake, Mean 30 min",[2]; striatum,3.03 SUV
same,"Uptake, Mean 60 min",[2]; striatum,1.14 SUV
same,"Uptake, Mean 2 min",[2]; whole cerebrum,3.11 SUV
same,"Uptake, Mean 10 min",[2]; whole cerebrum,3.43 SUV
same,"Uptake, Mean 30 min",[2]; whole cerebrum,2.31 SUV
same,"Uptake, Mean 60 min",[2]; whole cerebrum,0.87 SUV
same,blood uptake,[2]; with a slow washout,low
same,time of peak uptake after tracer injection,"mGluR2/3 [3]; frontal cortex, baseline scan",around 15 min
same,mGluR2/3 specificity of brain uptake,mGluR2/3 [3]; pons uptake in same range as other regions after compound A pretreatment,good mGluR2/3 specificity
